One test has as its target Human PDE10A1 (Homo sapiens, UniProt Q9Y233). Description: hPDE10A1 enzyme inhibition ([3H]-cAMP hydrolysis, scintillation counting). Format: biochemical. The conditions noted are these: Human PDE10A1, [3H]-cAMP substrate, 20 minutes at 37° C.; read-out: hPDE10A1 IC50 Band. Here is the method:
50 μl samples of serially diluted Human PDE10A1 enzyme were incubated with 50 μl of [^3H]-cAMP for 20 minutes (at 37° C.). Reactions were carried out in Greiner 96 deep well 1 ml master-block. The enzyme was diluted in 20 mM Tris HCl pH7.4 and [^3H]-cAMP was diluted in 10 mM MgCl2, 40 mM Tris.HCl pH 7.4. The reaction was terminated by denaturing the PDE enzyme (at 70° C.) after which [^3H]-5′-AMP was converted to [^3H]-adenosine by adding 25 μl snake venom nucleotidase and incubating for 10 minutes (at 37° C.). Adenosine, being neutral, was separated from charged cAMP or AMP by the addition of 200 μl Dowex resin. Samples were shaken for 20 minutes then centrifuged for 3 minutes at 2,500 r.p.m. 50 μl of supernatant was removed and added to 200 μl of MicroScint-20 in white plates (Greiner 96-well Optiplate) and shaken for 30 minutes before reading on Perkin Elmer TopCount Scintillation Counter.
To check inhibition profile 11 μl of serially diluted inhibitor was added to 50 μl of [^3H]-cAMP and 50 μl of diluted Human PDE10A1 and assay was carried out as in the enzyme activity assay. Data was analysed using Prism software (GraphPad Inc).

Test [1] relates to apomorphine induced stereotypes. The conditions noted are these: rats; cited from earlier work.
For test [2], the system named is rat brain dopamine levels. The conditions noted are these: rats; cited from earlier work.
In test [3] the test system is haloperidol induced catalepsy. To be noted: rats; cited from earlier work.

Each structure is given as a SMILES string. A value given as a limit tells only on which side of the number the result lay.

Human PDE10A1, sequence (Q9Y233 1-779 isoform Q9Y233-1): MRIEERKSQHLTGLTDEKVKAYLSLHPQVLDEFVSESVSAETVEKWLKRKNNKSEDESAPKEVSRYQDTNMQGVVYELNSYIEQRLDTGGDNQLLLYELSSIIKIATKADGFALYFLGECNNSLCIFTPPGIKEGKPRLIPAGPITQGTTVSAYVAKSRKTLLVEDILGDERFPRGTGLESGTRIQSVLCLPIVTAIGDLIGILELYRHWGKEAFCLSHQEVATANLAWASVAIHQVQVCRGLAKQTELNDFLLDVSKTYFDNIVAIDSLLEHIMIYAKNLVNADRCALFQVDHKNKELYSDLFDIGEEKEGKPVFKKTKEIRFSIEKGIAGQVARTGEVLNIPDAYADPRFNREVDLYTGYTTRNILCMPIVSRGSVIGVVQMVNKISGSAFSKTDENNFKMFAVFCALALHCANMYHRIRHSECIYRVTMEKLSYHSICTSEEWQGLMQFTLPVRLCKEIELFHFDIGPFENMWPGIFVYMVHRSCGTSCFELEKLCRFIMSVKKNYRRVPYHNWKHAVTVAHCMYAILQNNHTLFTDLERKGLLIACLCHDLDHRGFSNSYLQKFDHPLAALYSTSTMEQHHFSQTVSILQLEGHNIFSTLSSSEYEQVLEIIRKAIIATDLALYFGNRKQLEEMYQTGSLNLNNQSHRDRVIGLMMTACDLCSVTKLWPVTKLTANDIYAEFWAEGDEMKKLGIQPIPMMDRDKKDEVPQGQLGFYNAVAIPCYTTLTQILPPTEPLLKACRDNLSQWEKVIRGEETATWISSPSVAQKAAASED

As for `O=c1o[nH]c(-c2ccncc2)c1-c1ccc(OCc2ccc3ccccc3n2)cc1` [Example 1094, 3-(Pyridin-4-yl)-4-(4-(quinolin-2-ylmethoxy)phenyl)isoxazol-5(2H)-one], the 50% inhibitory concentration (IC50) at Human PDE10A1 is not above 50 nM.

`COc1ccc(C2=C(c3ccc(OCc4ccc5ccccc5n4)cc3)C(=O)OC2)cc1` [Example 59, 4-(4-Methoxyphenyl)-3-(4-(quinolin-2-ylmethoxy)phenyl)furan-2(5H)-one]: the half-maximal inhibitory concentration (IC50) on Human PDE10A1 was not above 50 nM.

In the case of `O=C1OCC(c2cccnc2)=C1c1ccc(OCc2ccc3ccccc3n2)cc1` [Example 1098, 4-(Pyridin-3-yl)-3-(4-(quinolin-2-ylmethoxy)phenyl)furan-2(5H)-one], the IC50 on Human PDE10A1 was more than 50 nM.

For the molecule `CN1CC(c2ccncc2)=C(c2ccc(OCc3ccc4ccccc4n3)cc2)C1=O` [Example 94, 1-Methyl-4-(pyridin-4-yl)-3-(4-(quinolin-2-ylmethoxy)phenyl)-1H-pyrrol-2(5H)-one], the IC50 on Human PDE10A1 was not above 50 nM.

Take `O=C1OCC(c2ccncc2)=C1c1ccc(OCc2ccc3ccccc3n2)cc1` [Example 37, 4-(Pyridin-4-yl)-3-(4-(quinolin-2-ylmethoxy)phenyl)furan-2(5H)-one]: the concentration for half-maximal inhibition (IC50) on Human PDE10A1 is not above 50 nM.

Consider `COc1ccc(C2=C(c3ccc(OCc4ccc5ccccc5n4)cc3)C(=O)N(C)C2)cc1` [Example 125, 4-(4-Methoxyphenyl)-1-methyl-3-(4-(quinolin-2-ylmethoxy)phenyl)-1H-pyrrol-2(5H)-one], for which, at Human PDE10A1, the IC50 is not above 50 nM.

In the case of `COc1ccc(C2=C(c3ccc(OCc4ccc5ccccc5n4)cc3)C(=O)OC2)cc1F` [Example 53, 4-(3-fluoro-4-methoxyphenyl)-3-(4-(quinolin-2-ylmethoxy)phenyl)furan-2(5H)-one], the IC50 on Human PDE10A1 is not above 50 nM.

For the molecule `COc1ccc(C2=C(c3ccc(OCc4ccc5ccccc5n4)cc3Cl)COC2=O)cc1` [Example 424, 4-(2-chloro-4-(quinolin-2-ylmethoxy)phenyl)-3-(4-methoxyphenyl)furan-2(5H)-one], the half-inhibitory concentration (IC50) on Human PDE10A1 was more than 50 nM.

For the molecule `COc1ccc(C2=C(c3ccc(OCc4ccc5ccccc5n4)cc3)COC2=O)cc1` [Example 14], the 50% inhibitory concentration (IC50) at Human PDE10A1 was not above 50 nM.

On to `COc1ccc(C2=C(c3ccc(OCc4ccc5ccccc5n4)cc3)C(=O)OC2)cc1C#N` [Example 55, 2-Methoxy-5-(5-oxo-4-(4-(quinolin-2-ylmethoxy)phenyl)-2,5-dihydrofuran-3-yl)benzonitrile], for which the IC50 on Human PDE10A1 is not above 50 nM.

Take `COc1ccc(C2=C(c3ccc(OCc4ccc5ccccc5n4)cc3)C(=O)OC2)cc1Cl` [Example 54, 4-(3-Chloro-4-methoxyphenyl)-3-(4-(quinolin-2-ylmethoxy)phenyl)furan-2(5H)-one]: on Human PDE10A1, the concentration for half-maximal inhibition (IC50) is not above 50 nM.

On to `COc1ccc(Cc2nccc3cc(OC)c(OC)cc23)cc1OC` [papaverine], for which the apomorphine induced stereotypes entry in test [1] is “reduces”. Further, the “rat brain dopamine levels” value in test [2] was “reduces”. Also, the haloperidol induced catalepsy entry in test [3] is on record as “increases”.

On to `O=C1OCC(c2ccncc2)=C1c1ccc(OCc2ccc3ccccc3n2)c(Cl)c1` [Example 1099, 3-(3-chloro-4-(quinolin-2-ylmethoxy)phenyl)-4-(pyridin-4-yl)furan-2(5H)-one], for which the concentration for half-maximal inhibition (IC50) on Human PDE10A1 is more than 50 nM.

Consider `O=c1[nH][nH]c(-c2ccncc2)c1-c1ccc(OCc2ccc3ccccc3n2)cc1` [Example 1096, 5-(Pyridin-4-yl)-4-(4-(quinolin-2-ylmethoxy)phenyl)-1H-pyrazol-3(2H)-one], for which the IC50 at Human PDE10A1 was more than 50 nM.

Regarding `O=C1OCC(N2CCOCC2)=C1c1ccc(OCc2ccc3ccccc3n2)cc1` [Example 1085, 4-Morpholino-3-(4-(quinolin-2-ylmethoxy)phenyl)furan-2(5H)-one], the IC50 on Human PDE10A1 was more than 50 nM.

On to `COc1ccc(C2=C(c3ccc(OCc4cccc(C)n4)cc3)COC2=O)cc1` [Example 1095, 3-(4-methoxyphenyl)-4-(4-((6-methylpyridin-2-yl)methoxy)phenyl)furan-2(5H)-one], for which the IC50 at Human PDE10A1 was more than 50 nM.

For `Cn1[nH]c(-c2ccncc2)c(-c2ccc(OCc3ccc4ccccc4n3)cc2)c1=O` [Example 1097, 2-Methyl-5-(pyridin-4-yl)-4-(4-(quinolin-2-ylmethoxy)phenyl)-1H-pyrazol-3(2H)-one], the IC50 on Human PDE10A1 was more than 50 nM.

What is called IC50 is the concentration at which inhibition is half-maximal.

The values are drawn from US8481534B2, “5- and 6-membered heterocyclic compounds” (EnVivo Pharmaceuticals, Inc., priority 2008, dated 2013).
